Assay results: patent publication US20140011778A1, “2-METHYLENE-19,23,24-TRINOR-1ALPHA-HYDROXYVITAMIN D3” (Wisconsin Alumni Research Foundation, priority 2011, published 2014)
pEC50, pKi: −log10 of the molar value. Like-named read-outs stand apart in the source and are kept apart here.

Assays:
[1] = system: Human promyelocytic leukemia (HL60) cells; assay: HL-60 differentiation (nitro blue tetrazolium reduction); type: cell-based; details: for HL-60 Differentiation (Relative Activity): (value for native hormone)/(value for working example), same assay; for pEC50: Homo sapiens, 96 h, HL-60 cells into monocytes, 4 days
Method: The study drugs were dissolved in ethanol and the concentrations determined using UV spectrophotometry. Serial dilutions were prepared so that a range of drug concentrations could be tested without changing the final concentration of ethanol (≦0.2%) present in the cell cultures.
Human promyelocytic leukemia (HL60) cells were grown in RPMI-1640 medium containing 10% fetal bovine serum. The cells were incubated at 37° C. in the presence of 5% CO2.
HL60 cells were plated at 1.2×10^5 cells/ml. Eighteen hours after plating, cells in duplicate were treated with the drug. Four days later, the cells were harvested and a nitro blue tetrazolium reduction assay was performed (Collins et al., 1979; J. Exp. Med. 149:969-974). The percentage of differentiated cells was determined by counting a total of 200 cells and recording the number that contained intracellular black-blue formazan deposits. Verification of differentiation to monocytic cells was determined by measuring phagocytic activity (data not shown).

[2] = target: T1, Full-length recombinant rat receptor (vitamin D receptor) (Rattus norvegicus, UniProt P13053); assay: Vitamin D receptor competitive binding; details: recombinant rat VDR, 3H-1,25(OH)2D3 1 nM
T1 construct: Full-length recombinant rat receptor was expressed in E. coli; histidine tag (C); made in house; host or cells: E. coli BL21(DE3) Codon Plus RIL
T1 sequence (P13053 1-423): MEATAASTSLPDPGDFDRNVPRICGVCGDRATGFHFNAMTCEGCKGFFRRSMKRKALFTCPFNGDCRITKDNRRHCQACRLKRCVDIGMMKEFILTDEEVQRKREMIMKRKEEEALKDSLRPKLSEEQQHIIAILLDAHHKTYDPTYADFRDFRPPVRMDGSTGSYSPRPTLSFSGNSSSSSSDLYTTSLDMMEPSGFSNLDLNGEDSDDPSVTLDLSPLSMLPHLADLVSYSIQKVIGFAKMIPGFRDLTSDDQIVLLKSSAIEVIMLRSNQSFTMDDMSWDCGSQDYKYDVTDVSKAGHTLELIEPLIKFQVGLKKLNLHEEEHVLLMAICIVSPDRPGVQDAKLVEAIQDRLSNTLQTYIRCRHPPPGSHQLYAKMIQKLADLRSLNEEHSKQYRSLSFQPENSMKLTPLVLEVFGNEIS
Method: Full-length recombinant rat receptor was expressed in E. coli BL21(DE3) Codon Plus RIL cells and purified to homogeneity using two different column chromatography systems. The first system was a nickel affinity resin that utilizes the C-terminal histidine tag on this protein. The protein that was eluted from this resin was further purified using ion exchange chromatography (S-Sepharose Fast Flow). Aliquots of the purified protein were quick frozen in liquid nitrogen and stored at −80° C. until use. For use in binding assays, the protein was diluted in TEDK50 (50 mM Tris, 1.5 mM EDTA, pH 7.4, 5 mM DTT, 150 mM KCl) with 0.1% Chaps detergent. The receptor protein and ligand concentration was optimized such that no more than 20% of the added radiolabeled ligand was bound to the receptor.
Unlabeled ligands were dissolved in ethanol and the concentrations determined using UV spectrophotometry (1,25(OH)2D3: molar extinction coefficient=18,200 and λmax=265 nm; Analogs: molar extinction coefficient=42,000 and λmax=252 nm). Radiolabeled ligand (^3H-1,25(OH)2D3, ˜159 Ci/mmole) was added in ethanol at a final concentration of 1 nM.
Radiolabeled and unlabeled ligands were added to 100 mcl of the diluted protein at a final ethanol concentration of ≦10%, mixed and incubated overnight on ice to reach binding equilibrium. […] Total binding was determined from the tubes containing only radiolabeled ligand.

Sprague-Dawley rats = assay: Intestinal calcium transport (everted gut sac); type: in vivo, rat; details: for serosal calcium to mucosal calcium ratio: rat, at 780 pM (so in the source)
Method: Male, weanling Sprague-Dawley rats were placed on Diet 11 (0.47% Ca) diet+AEK oil for one week followed by Diet 11 (0.02% Ca)+AEK oil for 3 weeks. The rats were then switched to a diet containing 0.47% Ca for one week followed by two weeks on a diet containing 0.02% Ca. Dose administration began during the last week on 0.02% calcium diet. Four consecutive intraperitoneal doses were given approximately 24 hours apart. Twenty-four hours after the last dose, blood was collected from the severed neck and the concentration of serum calcium determined as a measure of bone calcium mobilization. The first 10 cm of the intestine was also collected for intestinal calcium transport analysis using the everted gut sac method.

[3] = system: 24-hydroxylase (24OHase) gene promoter; assay: In vitro transcription assay (24OHase promoter-luciferase in ROS 17/2.8 cells); type: cell-based; details: for 24OHase Transcription (Relative Activity): (value for native hormone)/(value for working example), same assay
Method: Transcription activity was measured in ROS 17/2.8 (bone) cells that were stably transfected with a 24-hydroxylase (24OHase) gene promoter upstream of a luciferase reporter gene (Arbour et al., 1998). Cells were given a range of doses. Sixteen hours after dosing, the cells were harvested and luciferase activities were measured using a luminometer. RLU=relative luciferase units.

[4] = target: T1, Full-length recombinant rat receptor (vitamin D receptor); details: comparison compound from an earlier filing; read-out: Competitive VDR Binding, Ki; cited from earlier work
[5] = ROS 17/2.8 cells, luciferase, 16 h, read-out: 24OHase Transcription, EC50

Row | SMILES | HL-60 Differentiation (Relative Activity) [1] | pEC50 [1] | pKi [2] | 24OHase Transcription (Relative Activity) [3] | pEC50 [3, 5] | serosal calcium to mucosal calcium ratio (Sprague-Dawley rats) | pKi [4] | also measured
1 | C=C1[C@H](O)CC(=C/C=C2\CCC[C@]3(C)[C@@H]([C@@H](C)CC(C)C)CC[C@@H]23)C[C@H]1O [SMB, (20S)-2-methylene-19,23,24-trinor-1α-hydroxyvitamin D3] | 0.08 | 7.40 | 9.40 | 0.04 | 8.10 | – | – | less active than 2MtrisP in HL-60 differentiation, normalized against native hormone ([1]; ratio of relative activities 1.2/0.08): ≈ 15; intestinal calcium transport activity lower than that of the native hormone (Sprague-Dawley rats; 7020 pmol SMB similar to 87 pmol native hormone): approximately 80 times; pEC50 ([3]; FIG. 3, read-out: EC50 with respect to increasing transcription of the 24-hydroxylase gene): 5.10
2 | C=C1/C(=C\C=C2/CCC[C@]3(C)[C@@H]([C@H](C)CCCC(C)(C)O)CC[C@@H]23)C[C@@H](O)C[C@@H]1O [native hormone, 1α,25-dihydroxyvitamin D3, reference compound] | – | – | – | – | – | 4.1 | – | –
3 | C=C1C(O)CC(=CC=C2CCCC3(C)C2CCC3C(C)CCC)CC1O [2MtrisP, 2-methylene-19-nor-(20S)-1α-hydroxytrishomopregnacalciferol] | – | – | – | – | – | – | 10.12 | –
4 | C=C1[C@H](O)CC(=C/C=C2\CCC[C@]3(C)[C@@H]([C@H](C)CC(C)C)CC[C@@H]23)C[C@H]1O [RMB, (20R)-2-methylene-19,23,24-trinor-1α-hydroxyvitamin D3] | 0.0005 | 5.22 | 8.40 | 0.003 | 7.00 | 0.9 | – | less active than (20R)-2MbisP in differentiation of HL-60 cells ([1]; ratio of relative activities 0.18/0.0005): approximately 360 times; less active than (20R)-2MbisP in hydroxylase transcription ([3]; ratio of relative activities 0.05/0.003): more than 16 times
5 | C=C1C(O)CC(=CC=C2CCCC3(C)C2CCC3C(C)CC)CC1O [(20R)-2MbisP, 2-methylene-19-nor-(20R)-1α-hydroxybishomopregnacalciferol] | – | – | – | – | – | – | 10.11 | –
